# Where two headings read alike, the source gives them in different places.
# What was measured:
# bacterial RNAP = details: unpublished data
# RNAP holoenzyme [1] = target: T1, RNAP holoenzyme (Escherichia coli, UniProt P0A8T7+P0A8V2); assay type: biochemical; details: for Vmax: FIG. 3E
# Procedure: Following 15 min at 37° C., 0.5 μl 1 mg/ml heparin was added, and, following a further 2 min at 37° C., RNA synthesis was initiated by addition of 2 μl 5 mM ApA and 125 μM (or 250 μM, 500 μM, and 1 mM) each of [α-^32P]UTP (0.6 Bq/fmol), ATP, CTP, GTP. Following 5 min at 37° C., reactions were terminated by addition of 10 μl 80% formamide, 10 mM EDTA, 0.04% bromophenol blue, and 0.04% xylene cyanol. Products were heated 10 min at 90° C., resolved by urea-PAGE (Sambrook and Russel, (2001)), and quantified using a storage-phosphor scanner (Storm 860; Molecular Dynamics). Identities of tri- and tetranucleotide abortive products were defined as in Borowiec and Gralla, (1985) J. Mol. Biol. 184, 587-598). Data were fit to full-competitive, partial-competitive, full-noncompetitive, partial-noncompetitive, full-uncompetitive, partial-uncompetitive, full-mixed, and partial-mixed models of inhibition using the Fit-To-Model feature of the SigmaPlot Enzyme Kinetics Module (SPSS).
# RNAP holoenzyme [2] = target: T1, RNAP holoenzyme; assay type: biochemical; details: FIG. 3F
# Procedure: Following 15 min at 37° C., 0.5 μl 1 mg/ml heparin was added, and, following a further 2 min at 37° C., 1 μl of 0.25-5 mM (γ-AmNS)UTP (Molecular Probes) was added, and reaction mixtures were transferred to sub-micro fluorometer cuvettes (Starna Cells). Following 2 min at 37° C., RNA synthesis was initiated by addition of 2.5 μl 10 mM ApA, and fluorescence emission intensity was monitored 5 min at 37° C. [excitation wavelength=360 nm and emission wavelength=500 nm; excitation and emission slit widths=4 nm; QuantaMaster QM1 spectrofluorometer (PTI)]. The quantity of UMP incorporated into RNA was determined from the quantity of (γ-AmNS)UTP consumed, which, in turn, was calculated as follows (Schlageck et al., (1979) J. Biol. Chem. 254, 12074-12077): (γ-AmNS)UTPconsumed=[(γ-AmNS)UTP0](Ft−F0)/(12.4×F0) (1) where (γ-AmNS)UTP0 is the quantity of (γ-AmNS) UTP at time 0, F0 is the fluorescence emission intensity at time 0, and Ft is the fluorescence emission intensity at time t. Data were fit to full-competitive, partial-competitive, full-noncompetitive, partial-noncompetitive, full-uncompetitive, partial-uncompetitive, full-mixed, and partial-mixed models of inhibition as in the preceding section.
# T1 sequence (P0A8V2 whole entry): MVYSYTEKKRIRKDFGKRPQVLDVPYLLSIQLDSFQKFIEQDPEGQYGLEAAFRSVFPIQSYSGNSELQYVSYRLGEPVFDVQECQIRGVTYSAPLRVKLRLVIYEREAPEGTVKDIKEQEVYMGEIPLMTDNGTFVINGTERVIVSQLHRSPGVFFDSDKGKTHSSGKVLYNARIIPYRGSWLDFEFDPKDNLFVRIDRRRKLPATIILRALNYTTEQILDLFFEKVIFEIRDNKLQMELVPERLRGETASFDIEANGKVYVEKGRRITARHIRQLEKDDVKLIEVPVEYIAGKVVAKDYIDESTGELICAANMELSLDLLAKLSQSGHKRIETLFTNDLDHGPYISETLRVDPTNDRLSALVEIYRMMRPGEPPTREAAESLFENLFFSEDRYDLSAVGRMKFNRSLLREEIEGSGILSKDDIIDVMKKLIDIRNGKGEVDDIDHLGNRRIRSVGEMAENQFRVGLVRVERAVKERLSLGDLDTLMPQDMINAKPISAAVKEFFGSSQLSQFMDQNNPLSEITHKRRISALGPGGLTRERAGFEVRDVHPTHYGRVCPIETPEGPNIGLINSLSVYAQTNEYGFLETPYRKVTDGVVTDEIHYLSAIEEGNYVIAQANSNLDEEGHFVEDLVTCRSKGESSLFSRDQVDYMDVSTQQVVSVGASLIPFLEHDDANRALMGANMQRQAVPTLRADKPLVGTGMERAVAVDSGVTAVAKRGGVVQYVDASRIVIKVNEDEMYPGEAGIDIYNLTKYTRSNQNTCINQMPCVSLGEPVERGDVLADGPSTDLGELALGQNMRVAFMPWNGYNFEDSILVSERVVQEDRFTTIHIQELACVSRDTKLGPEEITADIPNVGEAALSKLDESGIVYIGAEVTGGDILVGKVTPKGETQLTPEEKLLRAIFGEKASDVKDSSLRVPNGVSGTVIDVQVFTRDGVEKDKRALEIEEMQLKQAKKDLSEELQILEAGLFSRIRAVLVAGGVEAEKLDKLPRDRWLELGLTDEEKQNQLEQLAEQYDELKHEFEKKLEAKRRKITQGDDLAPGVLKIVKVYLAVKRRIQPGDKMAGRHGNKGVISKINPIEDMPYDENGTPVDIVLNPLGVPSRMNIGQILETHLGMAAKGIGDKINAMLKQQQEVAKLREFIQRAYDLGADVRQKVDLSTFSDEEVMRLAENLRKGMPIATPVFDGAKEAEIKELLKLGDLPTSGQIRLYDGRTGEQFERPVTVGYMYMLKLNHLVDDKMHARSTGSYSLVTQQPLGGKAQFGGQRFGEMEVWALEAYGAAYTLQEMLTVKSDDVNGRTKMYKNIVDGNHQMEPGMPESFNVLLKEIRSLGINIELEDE
# T1 sequence (P00579 whole entry, further chain): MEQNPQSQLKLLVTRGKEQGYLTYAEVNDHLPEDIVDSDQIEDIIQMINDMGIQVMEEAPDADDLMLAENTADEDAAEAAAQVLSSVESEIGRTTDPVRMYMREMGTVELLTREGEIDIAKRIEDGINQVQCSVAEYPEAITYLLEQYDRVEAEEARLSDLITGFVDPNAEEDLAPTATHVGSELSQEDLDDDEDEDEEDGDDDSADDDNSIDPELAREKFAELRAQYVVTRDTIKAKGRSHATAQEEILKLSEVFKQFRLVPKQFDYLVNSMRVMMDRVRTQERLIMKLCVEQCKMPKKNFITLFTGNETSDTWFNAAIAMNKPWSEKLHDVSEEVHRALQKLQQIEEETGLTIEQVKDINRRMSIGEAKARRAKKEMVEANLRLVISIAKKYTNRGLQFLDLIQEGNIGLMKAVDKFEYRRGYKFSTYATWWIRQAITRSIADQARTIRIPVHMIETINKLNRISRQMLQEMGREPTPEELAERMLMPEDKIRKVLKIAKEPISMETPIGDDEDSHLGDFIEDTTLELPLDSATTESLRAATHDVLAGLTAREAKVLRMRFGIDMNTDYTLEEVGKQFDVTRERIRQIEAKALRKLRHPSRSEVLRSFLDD
# T1 sequence (P0A7Z4 whole entry, further chain): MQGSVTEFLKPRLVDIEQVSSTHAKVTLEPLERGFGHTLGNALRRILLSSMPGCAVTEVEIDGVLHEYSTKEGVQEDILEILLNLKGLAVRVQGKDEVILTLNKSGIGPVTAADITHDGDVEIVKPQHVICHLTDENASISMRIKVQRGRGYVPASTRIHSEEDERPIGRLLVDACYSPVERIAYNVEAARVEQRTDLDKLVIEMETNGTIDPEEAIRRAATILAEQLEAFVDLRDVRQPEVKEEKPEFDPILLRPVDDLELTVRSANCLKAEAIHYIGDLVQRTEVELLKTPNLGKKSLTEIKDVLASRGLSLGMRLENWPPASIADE
# T1 sequence (P0A800 whole entry, further chain): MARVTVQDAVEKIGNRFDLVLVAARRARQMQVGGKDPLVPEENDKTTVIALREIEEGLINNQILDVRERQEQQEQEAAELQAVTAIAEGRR
# T1 sequence (P0A8T7 whole entry): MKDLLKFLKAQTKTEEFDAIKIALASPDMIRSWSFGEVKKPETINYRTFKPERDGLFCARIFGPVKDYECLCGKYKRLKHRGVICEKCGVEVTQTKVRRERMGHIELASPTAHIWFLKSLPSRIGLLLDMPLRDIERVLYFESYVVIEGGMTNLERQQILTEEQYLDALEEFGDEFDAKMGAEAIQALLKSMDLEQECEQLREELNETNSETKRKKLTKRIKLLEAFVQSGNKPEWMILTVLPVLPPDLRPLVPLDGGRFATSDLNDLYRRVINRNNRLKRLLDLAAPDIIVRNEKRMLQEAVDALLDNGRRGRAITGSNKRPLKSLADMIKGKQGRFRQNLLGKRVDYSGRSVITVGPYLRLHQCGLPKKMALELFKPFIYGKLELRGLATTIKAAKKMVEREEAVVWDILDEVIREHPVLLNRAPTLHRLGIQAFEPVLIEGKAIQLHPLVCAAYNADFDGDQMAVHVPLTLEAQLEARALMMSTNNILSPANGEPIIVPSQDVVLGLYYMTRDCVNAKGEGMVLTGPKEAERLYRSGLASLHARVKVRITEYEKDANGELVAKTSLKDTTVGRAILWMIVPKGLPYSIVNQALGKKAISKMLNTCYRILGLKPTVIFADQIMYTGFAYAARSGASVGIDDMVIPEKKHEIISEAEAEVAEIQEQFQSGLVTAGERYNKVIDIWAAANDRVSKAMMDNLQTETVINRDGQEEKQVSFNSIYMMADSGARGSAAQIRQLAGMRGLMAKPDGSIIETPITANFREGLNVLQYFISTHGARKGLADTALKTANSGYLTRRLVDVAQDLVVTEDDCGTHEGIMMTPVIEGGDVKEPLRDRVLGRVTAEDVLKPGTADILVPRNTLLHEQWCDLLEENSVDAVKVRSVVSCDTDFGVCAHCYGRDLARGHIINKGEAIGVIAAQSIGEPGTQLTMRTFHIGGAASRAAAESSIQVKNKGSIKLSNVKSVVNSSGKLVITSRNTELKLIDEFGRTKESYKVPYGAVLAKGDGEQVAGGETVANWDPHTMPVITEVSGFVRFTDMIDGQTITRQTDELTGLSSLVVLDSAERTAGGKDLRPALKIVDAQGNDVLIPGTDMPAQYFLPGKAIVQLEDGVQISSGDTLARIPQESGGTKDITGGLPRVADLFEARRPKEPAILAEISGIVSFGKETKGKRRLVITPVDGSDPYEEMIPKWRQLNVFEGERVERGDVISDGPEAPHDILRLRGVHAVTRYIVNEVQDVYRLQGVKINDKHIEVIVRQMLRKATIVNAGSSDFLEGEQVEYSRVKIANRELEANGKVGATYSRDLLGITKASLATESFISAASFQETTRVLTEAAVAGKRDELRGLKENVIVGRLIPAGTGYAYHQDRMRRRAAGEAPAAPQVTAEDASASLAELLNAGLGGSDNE
substance,measurement,setting,value
Microcin J25 [MccJ25],cross-resistance with rifampicin,bacterial RNAP,do not exhibit cross-resistance with rifampicin
same,mode of inhibition with respect to NTPs,RNAP holoenzyme [1],partial competitive
same,inhibition of formation of abortive products (3 nt and 4 nt RNA species),"RNAP holoenzyme [1]; 100 μM MccJ25, 5 min at 37° C.",86%
same,inhibition of formation of the full-length product (26 nt RNA species),"RNAP holoenzyme [1]; 100 μM MccJ25, 5 min at 37° C.",94%
same,effect of high NTP concentrations on inhibition,"RNAP holoenzyme [1]; NTP 12.5, 25, 50, 100 μM",can overcome inhibition
same,Vmax,RNAP holoenzyme [1]; at 1 μM MccJ25,1.9±0.4 mol/mol template/min
same,Vmax,RNAP holoenzyme [1]; at 10 μM MccJ25,1.4±0.7 mol/mol template/min
same,Vmax,RNAP holoenzyme [2]; at 1 μM MccJ25,5.3±2.8 mol/mol template/min
same,Vmax,RNAP holoenzyme [2]; at 10 μM MccJ25,2.4±2.9 mol/mol template/min

# Reference: patent publication US20070196886A1 (priority 2004, published 2007)
